In test [1] the target is Phosphatidylcholine translocator ABCB4 (Homo sapiens, UniProt P21439). Put plainly: Inhibition of MDR3 in human hepatocytes in the presence of TCA incubated for 3 hrs by LC-MS/MS. Type of test: cell-based, Hepatocyte.
For test [2], the target named is T1, Lysophosphatidic acid receptor 3 (Homo sapiens, UniProt Q9UBY5).
T1 sequence (Q9UBY5 whole entry): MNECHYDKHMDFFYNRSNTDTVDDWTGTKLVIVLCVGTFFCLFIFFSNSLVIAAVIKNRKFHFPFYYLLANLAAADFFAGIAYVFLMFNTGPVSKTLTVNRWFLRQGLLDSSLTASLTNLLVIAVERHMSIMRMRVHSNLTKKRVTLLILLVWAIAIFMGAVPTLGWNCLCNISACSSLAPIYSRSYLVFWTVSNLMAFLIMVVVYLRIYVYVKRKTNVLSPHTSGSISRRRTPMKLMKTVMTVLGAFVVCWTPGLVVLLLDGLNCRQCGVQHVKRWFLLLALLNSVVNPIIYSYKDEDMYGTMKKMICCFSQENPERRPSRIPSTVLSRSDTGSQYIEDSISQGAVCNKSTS
The experiment in a line: Antagonist activity at human LPA3 expressed in human HeLa cells incubated for 30 mins by FLIPR-based calcium mobilization assay. It is filed as functional, cell-based. On the technique in general: A change in cytosolic calcium serves as a functional read-out for many receptors and channels.

The values below come from ChEMBL document CHEMBL6153155, “Novel Cyclohexyl Amido Acid Antagonists of Lysophosphatidic Acid Type 1 Receptor for the Treatment of Pulmonary Fibrosis” (ACS Med Chem Lett, 2025).

The structures appear in SMILES notation.

Phosphatidylcholine translocator ABCB4, sequence (P21439 whole entry): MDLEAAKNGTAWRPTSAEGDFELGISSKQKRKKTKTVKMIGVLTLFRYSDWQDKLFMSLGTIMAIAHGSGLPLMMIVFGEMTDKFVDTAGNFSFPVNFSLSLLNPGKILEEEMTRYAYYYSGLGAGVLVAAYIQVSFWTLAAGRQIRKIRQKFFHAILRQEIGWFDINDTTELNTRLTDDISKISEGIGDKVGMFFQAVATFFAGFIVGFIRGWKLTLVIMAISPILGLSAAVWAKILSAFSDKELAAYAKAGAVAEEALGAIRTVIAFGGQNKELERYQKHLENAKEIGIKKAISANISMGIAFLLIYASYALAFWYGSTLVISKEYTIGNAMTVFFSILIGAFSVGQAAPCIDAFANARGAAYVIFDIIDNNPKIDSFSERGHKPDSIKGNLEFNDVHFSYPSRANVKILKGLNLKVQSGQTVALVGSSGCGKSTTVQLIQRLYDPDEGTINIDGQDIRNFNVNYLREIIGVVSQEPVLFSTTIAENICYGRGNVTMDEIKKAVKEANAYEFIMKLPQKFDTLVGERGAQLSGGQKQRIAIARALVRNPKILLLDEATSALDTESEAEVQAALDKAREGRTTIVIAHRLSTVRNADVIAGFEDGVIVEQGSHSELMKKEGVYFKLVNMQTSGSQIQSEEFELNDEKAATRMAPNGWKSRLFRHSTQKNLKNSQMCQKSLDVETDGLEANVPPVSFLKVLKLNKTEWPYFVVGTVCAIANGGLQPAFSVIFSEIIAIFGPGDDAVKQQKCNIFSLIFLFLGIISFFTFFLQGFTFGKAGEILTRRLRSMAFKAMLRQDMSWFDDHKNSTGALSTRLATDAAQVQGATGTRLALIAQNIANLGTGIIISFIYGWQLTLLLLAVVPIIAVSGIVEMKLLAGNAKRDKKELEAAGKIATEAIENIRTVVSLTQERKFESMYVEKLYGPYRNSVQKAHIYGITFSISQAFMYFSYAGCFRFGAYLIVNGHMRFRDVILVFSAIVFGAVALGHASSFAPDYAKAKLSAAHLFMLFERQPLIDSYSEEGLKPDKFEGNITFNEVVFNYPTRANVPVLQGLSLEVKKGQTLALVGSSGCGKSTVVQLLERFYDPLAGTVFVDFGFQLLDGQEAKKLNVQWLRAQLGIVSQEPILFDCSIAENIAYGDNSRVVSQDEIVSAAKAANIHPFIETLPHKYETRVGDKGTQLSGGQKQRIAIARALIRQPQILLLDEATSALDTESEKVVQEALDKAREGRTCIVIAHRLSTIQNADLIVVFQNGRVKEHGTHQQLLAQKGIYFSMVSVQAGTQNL

Regarding `Cc1nc(-c2onc(C)c2NC(=O)O[C@H](C)c2ccccc2Cl)ccc1NC(=O)[C@H]1CCCC[C@@H]1C(=O)O`, the figures for the IC50 in test [1] and in test [2] were 251 µM and 37.2 µM, respectively.
